From US9067974B2, “Polymyxin derivatives and uses thereof” (priority 2006, dated 2015)
Bridge positions count the residues as written; N and C are the ends. Square brackets hold non-standard residues; d marks the D form. Peptide text beside a SMILES is read from it. * marks the point of attachment. Octanoyl = CCCCCCCC(=O)*; Dab = NCC[C@H](N)C(=O)O; Abu = CC[C@H](N)C(=O)O

Assays:
E. cloacae F232 = assay: E-test MIC of antibiotics on Mueller-Hinton agar with or without NAB7061 (4 μg/ml); sensitization factor = MIC ratio absence/presence; assay type: cell-based, Enterobacter cloacae
Procedure: (§1) MICs were determined by using E-strips (Biodisk Ltd., Solna, Sweden) according to the manufacturer's instructions.
(§2) The strains originated from ATCC (11 strains), CCUG (11 strains), and NCTC (The National Collection of Type Cultures, Colindale, U.K.; 2 strains). Eight strains (the F-strains) were purchased from Mobidiag Ltd., Helsinki, Finland. The source of E. coli IH3080 has been given in Example 2. Sensitization factor was defined as in Example 7.

E. cloacae CCUG52947 = assay: as above; assay type: cell-based, Enterobacter cloacae
Procedure: as §1, §2

E. cloacae F230 = assay: as above; assay type: cell-based, Enterobacter cloacae
Procedure: as §1, §2

E. coli IH3080 (K1:O18) [1] = assay: Well diffusion growth inhibition on LB agar plates (direct antibacterial activity); assay type: cell-based, Escherichia coli
Outline: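 Growth inhibition of encapsulated E. coli IH3080 (K1:O18) was measured by well diffusion on LB agar plates. A suspension of about 10^8 cells/ml in 0.9% NaCl, made from an overnight LB agar culture, was spread over the plates and the excess removed. Once dry, five 2 mm wells were drilled per plate and test solutions added, with 0.9% NaCl as control. After 18 h at 37° C, inhibition zone diameters were measured and converted to surface areas in square mm.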

K. pneumoniae F145 = assay: E-test MIC of antibiotics on Mueller-Hinton agar with or without NAB7061 (4 μg/ml); sensitization factor = MIC ratio absence/presence; assay type: cell-based, Klebsiella pneumoniae
Procedure: as §1, §2

K. pneumoniae CCUG45421 = assay: as above; assay type: cell-based, Klebsiella pneumoniae; details: NAB 7061 4 μg/ml
Procedure: as §1, §2

K. pneumoniae F144 = assay: as above; assay type: cell-based, Klebsiella pneumoniae
Procedure: as §1, §2

S. maltophilia ATCC17444 = assay: as above; assay type: cell-based
Procedure: as §1, §2

E. coli IH3080 (K1:O18) [2] = assay: Experimental E. coli peritonitis model in mice; assay type: in vivo; details: 4.5 h postinfection ([…] after the treatment), 5 mg/kg subcutaneous
Procedure: A suspension of E. coli IH3080 (K1:O18) in saline (0.9% NaCl) was prepared from an overnight culture on a blood agar plate (Statens Serum Institut, Copenhagen, Denmark). All mice (female NMR1 from Harlan Scandinavia, Allerød, Denmark; weight, 25-30 g) were inoculated intraperitoneally with 0.5 ml of the suspension containing 0.96×10^6 CFU per ml in the lateral lower quadrant of the abdomen. At 1 h, the CFU count was determined from three mice and the remaining mice (four mice per group) were treated with a subcutaneous injection of 0.2 ml of erythromycin solution in saline (corresponding to 5 mg/kg body weight) or NAB7061 solution in saline (corresponding to 5 mg/kg body weight), or both erythromycin and NAB7061 (corresponding to 5 mg/kg body weight of both drugs; given at two separate sites). Control group received two 0.2 ml injections of saline. At 4.5 h postinfection, all mice were anaesthetized with CO2 and sacrificed. Sterile saline (2 ml) was injected intraperitoneally and the abdomen was gently massaged before it was opened and the fluid sampled. Appropriate dilutions of the fluid were plated on blood agar plates, the plates were incubated overnight, and the colonies were counted.

E. coli IH3080 = assay: Sensitization to rifampin: well diffusion growth inhibition on LB plates containing rifampin; assay type: cell-based, Escherichia coli; details: 4 μg of compound
[3] = tested on: Ps. aeruginosa ATCC 27853; assay: as above; assay type: cell-based, Pseudomonas aeruginosa; details: 4 μg of compound
[4] = tested on: Pseudomonas aeruginosa ATCC 27853; assay: Well diffusion growth inhibition on LB agar plates (direct antibacterial activity); assay type: cell-based; details: Ps. aeruginosa ATCC 27853
Outline: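 Pseudomonas aeruginosa ATCC 27853 was tested for direct antibacterial susceptibility by agar well diffusion. A suspension of about 10^8 cells/ml in 0.9% NaCl was spread over LB agar and the excess removed. After drying, 2 mm wells were drilled and filled with compound dissolved in 0.9% NaCl, with NaCl alone as control. Plates were incubated 18 h at 37° C, and inhibition zone diameters were measured and converted to areas in square mm.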

[5] = tested on: Acinetobacter baumannii ATCC 19606; assay: as above; assay type: cell-based; details: A. baumannii ATCC 19606
Outline: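 Direct antibacterial activity against Acinetobacter baumannii ATCC 19606 was measured by agar well diffusion on LB plates. The plates were flooded with a suspension of approx. 10^8 cells/ml in 0.9% NaCl, and the excess was removed. Once the surface dried, five wells of 2 mm diameter were drilled per plate. The wells were filled with test compound dissolved in 0.9% NaCl, with plain 0.9% NaCl as control. After 18 h at 37° C., inhibition zone diameters were measured and converted to growth inhibition areas in square mm.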

A. baumannii ATCC 19606 = assay: Sensitization to rifampin: well diffusion growth inhibition on LB plates containing rifampin; assay type: cell-based, Acinetobacter baumannii; details: 4 μg of compound

CCCCCCCC(=O)N[C@H](C(=O)N[C@@H](CC)C(=O)N[C@H]1CCNC(=O)[C@H]([C@@H](C)O)NC(=O)[C@H](CCN)NC(=O)[C@H](CCN)NC(=O)[C@H](CC(C)C)NC(=O)[C@@H](Cc2ccccc2)NC(=O)[C@H](CCN)NC1=O)[C@@H](C)O [NAB 7061, OA-Thr-Abu-cy[Dab-Dab-DPhe-Leu-Dab-Dab-Thr-]] (Octanoyl-T[Abu][Dab][Dab][dF]L[Dab][Dab]T; lactam 3-C)
MIC of clarithromycin in the presence of 4 μg/ml of NAB 7061 (E. cloacae F232): 0.094 µg/mL | MIC of rifampin in the presence of 4 μg/ml of NAB 7061 (E. cloacae F232): 0.023 µg/mL | MIC of rifampin in the presence of 4 μg/ml of NAB 7061 (E. cloacae CCUG52947): 0.032 to 0.047 µg/mL | Sensitization factor to rifampin (E. cloacae CCUG52947; NAB 7061 4 μg/ml): 500-1000 | MIC of clarithromycin in the presence of 4 μg/ml of NAB 7061 (E. cloacae F230): 0.047 µg/mL | MIC of rifampin in the presence of 4 μg/ml of NAB 7061 (E. cloacae F230): 0.016 to 0.032 µg/mL | Antibacterial activity (growth inhibition area around a well) (E. coli IH3080 (K1:O18) [1]; 4 μg of compound per well): 0 square millimeters | Antibacterial activity (growth inhibition area around a well) (E. coli IH3080 (K1:O18) [1]; 10 μg of compound per well): 50 square millimeters | MIC of clarithromycin in the presence of 4 μg/ml of NAB 7061 (K. pneumoniae F145): 0.25 µg/mL | MIC of rifampin in the presence of 4 μg/ml of NAB 7061 (K. pneumoniae F145): 0.19 to 0.25 µg/mL | Sensitization factor to rifampin (K. pneumoniae CCUG45421): 10-20 | MIC of rifampin in the presence of 4 μg/ml of NAB 7061 (K. pneumoniae F144): 0.19 µg/mL | Sensitization factor to rifampin (K. pneumoniae F144; NAB 7061 4 μg/ml): >170 | MIC of rifampin in the presence of 4 μg/ml of NAB 7061 (S. maltophilia ATCC17444): 2 µg/mL | CFU counts in peritoneal fluid (E. coli IH3080 (K1:O18) [2]): 1.1 (±0.6)×10^6 per ml | Antibacterial activity in the presence of rifampin (growth inhibition area around a well) (E. coli IH3080; rifampin 0 μg/ml): 0 square millimeters | Antibacterial activity in the presence of rifampin (growth inhibition area around a well) (E. coli IH3080; rifampin 0.1 μg/ml): 113 square millimeters | Antibacterial activity in the presence of rifampin (growth inhibition area around a well) (E. coli IH3080; rifampin 1.0 μg/ml): 155 square millimeters | Antibacterial activity in the presence of rifampin (growth inhibition area around a well) ([3]; rifampin 0 μg/ml): 0 square millimeters | Antibacterial activity in the presence of rifampin (growth inhibition area around a well) ([3]; rifampin 0.1 μg/ml): 0 square millimeters | Antibacterial activity in the presence of rifampin (growth inhibition area around a well) ([3]; rifampin 0.3 μg/ml): 0 square millimeters | Antibacterial activity (growth inhibition area around a well) ([4]; 4 μg per well): 0 square millimeters | Antibacterial activity (growth inhibition area around a well) ([4]; 10 μg per well): 0 square millimeters | Antibacterial activity (growth inhibition area around a well) ([5]; 4 μg per well): 0 square millimeters | Antibacterial activity (growth inhibition area around a well) ([5]; 10 μg per well): 0 square millimeters | Antibacterial activity in the presence of rifampin (growth inhibition area around a well) (A. baumannii ATCC 19606; rifampin 0 μg/ml): 0 square millimeters | Antibacterial activity in the presence of rifampin (growth inhibition area around a well) (A. baumannii ATCC 19606; rifampin 0.1 μg/ml): 28 square millimeters | Antibacterial activity in the presence of rifampin (growth inhibition area around a well) (A. baumannii ATCC 19606; rifampin 0.3 μg/ml): 50 square millimeters
